According to US10828379B2, “In vivo differentiation of relative oxygen levels and tumor necrosis using divalent europium” (WAYNE STATE UNIVERSITY, priority 2015, dated 2020):

What was measured:
[1] = In vivo T1-weighted MRI after intravenous, intraperitoneal and subcutaneous injection; set-up: species or system mouse; conditions: liver, kidneys, bladder; equivalent dose for Gd control
Description: To test our hypothesis regarding the in vivo response of Eu^II-222, we acquired T1-weighted images of mice after administering Eu^II-222 (0.1 mL, 4 mM, europium dose of 3 mg/kg) through intravenous, intraperitoneal, and subcutaneous injections (FIG. 8). Mice were imaged prior to injection and at 3 and 8 min to compare responses with the three injection types. […] Although this observation is inconsistent with the low oxygen content of venous blood (relative to the peritoneal cavity), the circulation time of blood in a mouse is approximately 8 s (38). […] Therefore, the exchange between venous and arterial blood during circulation can explain our observations.
Studies in animals were carried out with the assistance of the Animal Model and Therapeutics Evaluation Core of the Barbara Ann Karmanos Cancer Institute after approval from the Wayne State University Institutional Animal Care and Use Committee. MRI scans were performed in the Elliman Clinical Research Building at Wayne State University with a 7 T Bruker Clinscan small animal MRI scanner equipped with a 30 cm bore. […]
For intravenous injections, mice were catheterized before being anesthetized with isoflurane. […] A correction volume (0.08 mL) was added to the calculated dose volumes for intravenous injections to account for the volume of the phosphate-buffered saline within the catheter. […]

4T1 mammary carcinoma = assay: In vivo T1-weighted MRI after intratumoral injection, with histological staining; set-up: species or system mouse; conditions: bladder, liver, kidneys; Gd control 50 μL, 20.5 mM
Description: To test whether Eu^II-222Fb would enhance contrast in necrotic tissue, we performed T1-weighted MRI before and after intratumoral injection of Eu^II-222Fb (50 μL, 19.4 mM) into a 4T1 mammary carcinoma. The 4T1 carcinoma model is an aggressive tumor that typically develops a necrotic core,^[10] and imaging was performed when tumors reached approximately 700-1000 mg to maximize the probability of necrosis. Images were acquired before and at 3, 20, and 120 min after intratumoral injection (FIG. 3A-D). […]
To better understand the potential mechanism of differentiation, we performed an intratumoral injection of Eu^II-222Fb (50 μL, 6.9 mM) and monitored contrast enhancement over the course of 3 h before sacrificing the mouse and removing the injected tumor for analysis of Eu content by inductively coupled plasma mass spectrometry. […]
Studies in animals were carried out with the assistance of the Animal Model and Therapeutics Evaluation Core of the Barbara Ann Karmanos Cancer Institute after approval from the Wayne State University Institutional Animal Care and Use Committee. […] Animals were pooled, implanted bilaterally subcutaneously with 30-60 mg tumor fragments with a 12 gauge trocar, and imaged when tumors reached approximately 700-1000 mg in size (determined by caliper measurements: tumor mass (mg)≈[tumor length (mm)×tumor width^2 (mm^2)]/2). […]

O=C([O-])CN(CCN(CC(=O)[O-])CC(=O)[O-])CCN(CC(=O)[O-])CC(=O)[O-].[Gd+3] [Gd^III-diethylenetriaminepentaacetate]
contrast enhancement in organs associated with clearance after intravenous injection [1]: positive contrast enhancement was observed in the kidneys within 3 min

Gd^III-1,4,7,10-tetraazacyclododecane-1,4,7,10-tetraacetate
contrast enhancement in organs associated with clearance after intratumoral injection (4T1 mammary carcinoma): bright with contrast within minutes of the injection
